Patent publication US20120258960A1, “NOVEL MULTIFUNCTIONAL PEPTIDASE INHIBITORS, ESPECIALLY FOR MEDICAL USE” (IMTM GMBH, priority 2009, published 2012)

Legend:
[1] = target: human recombinant Aminopeptidase N (Homo sapiens, UniProt P15144); experiment: Measurement of APN activity (fluorogenic substrate (Ala)2-R110); type: biochemical; settings: human recombinant APN approx. 5 nM, substrate 0.5 μM, pH 7.5
Experimental: Inhibitory effects of test items on the enzymatic activity of human recombinant Aminopeptidase N (final concentration approx. 5 nM) were assessed by using the fluorogenic substrate bis-(L-alanyl)-Rhodamine-110 (bis-trifluoracetate, abbreviation (Ala)2-R110) at a final concentration of 0.5 μM. The assay was performed in 0.05 M TRIS/HCl buffer pH 7.5, supplemented with 0.05% Triton (v/v), 0.05% BSA (w/v), 2 mM MgCl2.
The assay was performed in white microtitre plates for fluorescence measurements.
As controls, (Ala)2-R110 hydrolyzing activity in the absence of any test item as well as the spontaneous substrate hydrolysis was determined.
The release of the fluorescent hydrolysis product Rhodamine 110 was measured at an excitation wavelength of 485 nm and an emission wavelength of 530 nm by using a microtitre fluorescence reader immediately after substrate addition as well as after 30, 60 and 120 min.

[2] = target: purified, recombinant human DPIV (Homo sapiens, UniProt P27487); experiment: Measurement of DPIV activity (fluorogenic substrate (Ala-Pro)2-R110)
Chain of purified, recombinant human DPIV (P27487 whole entry): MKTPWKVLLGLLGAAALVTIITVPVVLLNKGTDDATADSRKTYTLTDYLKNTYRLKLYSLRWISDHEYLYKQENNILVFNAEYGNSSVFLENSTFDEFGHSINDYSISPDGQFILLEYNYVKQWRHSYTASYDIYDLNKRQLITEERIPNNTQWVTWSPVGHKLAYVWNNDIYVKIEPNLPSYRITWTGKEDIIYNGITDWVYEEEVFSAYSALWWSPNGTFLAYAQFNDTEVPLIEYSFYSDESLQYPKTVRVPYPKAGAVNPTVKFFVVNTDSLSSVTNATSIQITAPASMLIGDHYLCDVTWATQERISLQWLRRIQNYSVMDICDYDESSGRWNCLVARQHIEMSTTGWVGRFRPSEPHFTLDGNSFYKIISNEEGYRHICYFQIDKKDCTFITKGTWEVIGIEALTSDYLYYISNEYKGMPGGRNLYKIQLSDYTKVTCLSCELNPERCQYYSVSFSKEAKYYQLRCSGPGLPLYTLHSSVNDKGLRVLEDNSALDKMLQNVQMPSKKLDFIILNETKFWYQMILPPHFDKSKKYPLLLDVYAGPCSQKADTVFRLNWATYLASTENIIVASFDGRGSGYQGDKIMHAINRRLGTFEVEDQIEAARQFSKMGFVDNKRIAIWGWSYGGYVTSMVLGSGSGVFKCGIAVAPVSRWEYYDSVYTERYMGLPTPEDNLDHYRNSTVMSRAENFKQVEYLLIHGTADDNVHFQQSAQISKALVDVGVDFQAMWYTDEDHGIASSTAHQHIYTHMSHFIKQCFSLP
Experimental: The enzymatic activity of DPIV was assessed by the hydrolysis of the fluorogenic substrate bis-(L-alanyl-prolyl)-Rhodamin-110 (bis-trifluoracetate, abbreviation (Ala-Pro)2-R110). The final substrate concentration was 0.5 μM.
The assay was performed in white microtitre plates for fluorescence measurements. The test items, substrate and enzyme were diluted in assay buffer. […] As controls, the DPIV activity in the absence of test items as well as the spontaneous hydrolysis of the substrate was determined.

Chain of human recombinant Aminopeptidase N (P15144 whole entry): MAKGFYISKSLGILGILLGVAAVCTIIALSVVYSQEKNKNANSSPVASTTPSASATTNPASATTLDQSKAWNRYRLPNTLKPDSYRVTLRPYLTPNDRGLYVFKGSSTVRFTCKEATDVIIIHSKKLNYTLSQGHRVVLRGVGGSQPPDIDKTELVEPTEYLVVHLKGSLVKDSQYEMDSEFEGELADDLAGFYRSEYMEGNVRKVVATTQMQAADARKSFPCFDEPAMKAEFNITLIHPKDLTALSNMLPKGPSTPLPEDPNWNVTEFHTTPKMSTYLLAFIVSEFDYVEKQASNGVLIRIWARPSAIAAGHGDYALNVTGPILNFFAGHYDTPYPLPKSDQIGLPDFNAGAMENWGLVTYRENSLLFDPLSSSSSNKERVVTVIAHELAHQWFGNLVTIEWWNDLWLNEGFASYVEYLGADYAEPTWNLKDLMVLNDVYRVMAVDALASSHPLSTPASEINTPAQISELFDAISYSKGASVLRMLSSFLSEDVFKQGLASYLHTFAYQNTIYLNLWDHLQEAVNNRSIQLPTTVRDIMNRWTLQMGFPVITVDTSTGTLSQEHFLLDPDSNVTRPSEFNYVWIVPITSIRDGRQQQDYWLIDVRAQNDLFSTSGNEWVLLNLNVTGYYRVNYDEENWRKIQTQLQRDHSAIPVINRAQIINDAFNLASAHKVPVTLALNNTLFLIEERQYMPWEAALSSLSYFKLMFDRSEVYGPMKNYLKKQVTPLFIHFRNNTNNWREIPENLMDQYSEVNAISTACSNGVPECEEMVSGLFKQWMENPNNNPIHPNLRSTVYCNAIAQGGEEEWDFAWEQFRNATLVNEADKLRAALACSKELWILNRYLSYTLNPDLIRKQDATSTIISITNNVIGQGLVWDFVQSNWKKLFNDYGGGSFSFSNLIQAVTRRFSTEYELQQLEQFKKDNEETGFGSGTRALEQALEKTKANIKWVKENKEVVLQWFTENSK

Compound	IC50 [1] [µM]	IC50 [2] [nM]
CN(CCCNC(=O)CC(N)Cc1cc(F)ccc1F)C(=O)C(O)C(N)Cc1ccccc1 (stereo not shown) [drawing 40]	15.4	200
CCCCCCCCCCCCCCCC(=O)OC(C(=O)NCCCCNC(=O)CC(N)Cc1cc(F)ccc1F)C(N)Cc1ccccc1 (stereo not shown) [drawing 53]	–	8000
CC(C)(CNC(=O)CC(N)Cc1cc(F)ccc1F)CNC(=O)C(O)C(N)Cc1ccc(O)cc1 (stereo not shown) [drawing 73]	> 50	4600
NC(CC(=O)NCCCCNC(=O)C(O)C(N)Cc1ccc(Br)cc1)Cc1cc(F)ccc1F (stereo not shown) [drawing 61]	0.06	100
CC(C)(CNC(=O)CC(N)Cc1cc(F)ccc1F)CNC(=O)C1OC(=O)NC1Cc1ccc(-c2ccccc2)cc1 (stereo not shown) [drawing 69]	1.9	40000
CC(C)(CNCC(N)Cc1cc(F)ccc1F)CNC(=O)C(O)C(N)Cc1ccccc1 (stereo not shown) [drawing 70]	0.33	30000
NC(CC(=O)NCCCCNC(=O)C(O)C(N)Cc1ccc(C(=O)O)cc1)Cc1cc(F)ccc1F (stereo not shown) [drawing 45]	> 50	470
CCCCCC(=O)OC(C(=O)NCC(C)(C)CNC(=O)CC(N)Cc1cc(F)ccc1F)C(N)Cc1ccccc1 (stereo not shown) [drawing 55]	1.9	30
NC(CC(=O)NCCNC(=O)C(O)C(N)Cc1ccccc1)Cc1ccc2ccccc2c1 (stereo not shown) [drawing 13]	1.5	28000
NC(CC(=O)NCCCCNC(=O)C(O)C(N)Cc1ccccc1)Cc1ccccc1 (stereo not shown) [drawing 23]	0.18	2700
NC(CC(=O)Nc1ccc(NC(=O)C(O)C(N)Cc2ccccc2)cc1)Cc1cc(F)ccc1F (stereo not shown) [drawing 39]	0.02	–
CC(C)(CNC(=O)CC(N)Cc1cc(F)ccc1F)CNC(=O)C(O)C(N)Cc1ccc(-c2ccsc2)cc1 (stereo not shown) [drawing 74]	0.001	100
NC(CC(=O)NCCNC(=O)CC(O)C(N)Cc1ccccc1)Cc1ccccc1 (stereo not shown) [drawing 18]	> 50	1000
CCCCCCCCCCCCCC(=O)OC(C(=O)NCC(C)(C)CNC(=O)CC(N)Cc1cc(F)ccc1F)C(N)Cc1ccccc1 (stereo not shown) [drawing 46]	21	1000
CC(C)(CNC(=O)CC(N)Cc1cc(F)ccc1F)CNC(=O)C(O)C(N)Cc1ccc(-c2cccnc2)cc1 (stereo not shown) [drawing 76]	0.0008	96
CCCCCCCC(=O)OC(C(=O)NCCCCNC(=O)CC(N)Cc1cc(F)ccc1F)C(N)Cc1ccccc1 (stereo not shown) [drawing 50]	> 50	120
CCCCCCCC(=O)NC(CC(=O)NCC(C)(C)CNC(=O)C(O)C(Cc1ccccc1)NC(=O)CCCCCCC)Cc1cc(F)ccc1F (stereo not shown) [drawing 33]	> 50	> 50000
CCCCCCCCOC(C(=O)NCC(C)(C)CNC(=O)CC(N)Cc1cc(F)ccc1F)C(N)Cc1ccccc1 (stereo not shown)	> 50	14000
CC(C)(NC(=O)CC(N)Cc1ccccc1)C(C)(C)NC(=O)C(O)C(N)Cc1ccccc1 (stereo not shown) [drawing 20]	16.7	13800
NC(CC(=O)NCCCCNC(=O)C(O)C(N)Cc1ccccc1)C(=O)N1CCSC1 (stereo not shown) [drawing 42]	> 50	1700

Compound	IC50 [1] [µM]	IC50 [2] [nM]
NC(CC(=O)NCCCCCCNC(=O)C(O)C(N)Cc1ccccc1)Cc1ccccc1 (stereo not shown) [drawing 28]	0.41	1200
NC(CC(=O)N1CCCN(C(=O)C(O)C(N)Cc2ccccc2)CC1)Cc1cc(F)ccc1F (stereo not shown) [drawing 65]	10	70
CN(CCCN(C)C(=O)C(O)C(N)Cc1ccccc1)C(=O)CC(N)Cc1cc(F)ccc1F (stereo not shown) [drawing 32]	8.5	178
CCCCCCCCCCCC(=O)OC(C(=O)NCC(C)(C)CNC(=O)CC(N)Cc1cc(F)ccc1F)C(N)Cc1ccccc1 (stereo not shown) [drawing 47]	18	600
CC(C)(CNC(=O)CC(N)Cc1ccccc1)CNC(=O)CC(O)C(N)Cc1ccccc1 (stereo not shown) [drawing 24]	> 25	2200
CCCCCCCCCCCCCCCCNC(CC(=O)NCC(C)(C)CNC(=O)C(O)C(Cc1ccccc1)NCCCCCCCCCCCCCCCC)Cc1cc(F)ccc1F (stereo not shown) [drawing 66]	> 50	> 50000
CN(CCCNC(=O)OCc1ccccc1)C(=O)C(O)C(N)Cc1ccccc1 (stereo not shown) [drawing 72]	11.5	> 50000
NC(CNC(=O)c1cccc(NC(=O)C(O)C(N)Cc2ccc(-c3ccsc3)cc2)c1)Cc1cc(F)ccc1F (stereo not shown) [drawing 78]	0.0005	460
NC(CNC(=O)c1cccc(NC(=O)C(O)C(N)Cc2ccc(-c3cccnc3)cc2)c1)Cc1cc(F)ccc1F (stereo not shown) [drawing 79]	0.0008	775
CN(CCCNC(=O)C(O)C(N)Cc1ccccc1)C(=O)CC(N)Cc1cc(F)ccc1F (stereo not shown) [drawing 37]	0.7	72
CCCCCCCCCCCCCCCC(=O)NC(CC(=O)NCC(C)(C)CNC(=O)C(O)C(Cc1ccccc1)NC(=O)CCCCCCCCCCCCCCC)Cc1cc(F)ccc1F (stereo not shown) [drawing 62]	> 50	> 50000
CCCCCCCCCCCCCCCC(=O)OC(C(=O)NCC(C)(C)CNC(=O)CC(N)Cc1cc(F)ccc1F)C(N)Cc1ccccc1 (stereo not shown) [drawing 43]	0.03	60
CCC(CC)(CNC(=O)CC(N)Cc1cc(F)ccc1F)CNC(=O)C(O)C(N)Cc1ccccc1 (stereo not shown) [drawing 59]	0.3	100
CCCCCCCC(=O)OC(C(=O)NCC(C)(C)CNC(=O)CC(N)Cc1cc(F)ccc1F)C(N)Cc1ccccc1 (stereo not shown) [drawing 41]	0.2	300
CC(C)(CNC(=O)C(O)C(N)Cc1ccccc1)CNC(=O)C(CC(=O)O)C(N)Cc1cc(F)ccc1F (stereo not shown) [drawing 56]	1.4	3700
CC(C)(CNC(=O)CC(CN)Cc1ccccc1)CNC(=O)C(O)C(N)Cc1ccccc1 (stereo not shown) [drawing 34]	0.15	> 50000
CCCCCCCCCC(=O)OC(C(=O)NCC(C)(C)CNC(=O)CC(N)Cc1cc(F)ccc1F)C(N)Cc1ccccc1 (stereo not shown) [drawing 48]	> 50	200
CC(C)(CNC(=O)CC(N)C(=O)N1CCSC1)CNC(=O)C(O)C(N)Cc1ccccc1 (stereo not shown) [drawing 30]	2	2120
NC(CC(=O)NCC1(CNC(=O)C(O)C(N)Cc2ccccc2)CCCC1)Cc1cc(F)ccc1F (stereo not shown) [drawing 68]	0.08	160
NC(CC(=O)NCCCCNC(=O)C(O)C(N)Cc1ccccc1)Cc1cc(F)ccc1F (stereo not shown) [drawing 25]	0.14	80

Compound	IC50 [1] [µM]	IC50 [2] [nM]
C[C@@H]1CN(C(=O)CC(O)C(N)Cc2ccccc2)C[C@H](C)N1C(=O)CC(N)Cc1ccccc1 (stereo partly shown) [drawing 19]	22	280
CC(C)(CNC(=O)CC(N)Cc1cc(F)ccc1F)CNC(=O)C(OC(=O)CCCc1ccccc1)C(N)Cc1ccccc1 (stereo not shown) [drawing 49]	15	300
CCCC(=O)NC(CC(=O)NCC(C)(C)CNC(=O)C(O)C(Cc1ccccc1)NC(=O)CCC)Cc1cc(F)ccc1F (stereo not shown) [drawing 38]	> 50	> 50000
NC(CC(=O)NC1CCCC(NC(=O)C(O)C(N)Cc2ccccc2)C1)Cc1cc(F)ccc1F (stereo not shown) [drawing 63]	0.03	120
CC(C)(CCNC(=O)CC(N)Cc1cc(F)ccc1F)CNC(=O)C(O)C(N)Cc1ccccc1 (stereo not shown) [drawing 36]	> 50	100
CCCCCCCC(=O)OC(C(=O)N(C)CCCNC(=O)CC(N)Cc1cc(F)ccc1F)C(N)Cc1ccccc1 (stereo not shown) [drawing 44]	> 50	20
NC(CC(=O)N1CCN(C(=O)C(O)C(N)Cc2ccccc2)CC1)Cc1ccccc1 (stereo not shown) [drawing 17]	27	800
CCC(CC)(CNC(=O)CC(N)Cc1ccccc1)CNC(=O)C(O)C(N)Cc1ccccc1 (stereo not shown) [drawing 22]	2.8	2600
CCCCCCCCCCCCCC(=O)NC(CC(=O)NCC(C)(C)CNC(=O)C(O)C(Cc1ccccc1)NC(=O)CCCCCCCCCCCCC)Cc1cc(F)ccc1F (stereo not shown) [drawing 58]	32	5500
NC(CNC(=O)c1cccc(NC(=O)C(O)C(N)Cc2ccccc2)c1)Cc1cc(F)ccc1F (stereo not shown) [drawing 71]	0.009	1700
NC(CC(=O)NCCNC(=O)C(O)C(N)Cc1ccccc1)Cc1ccccc1 (stereo not shown) [drawing 14]	2.9	800
NC(CC(=O)NCCCNC(=O)C(O)C(N)Cc1ccccc1)Cc1cc(F)ccc1F (stereo not shown) [drawing 31]	0.02	500
NC(CC(=O)NCCNC(=O)C(O)C(N)Cc1ccccc1)Cc1cc(F)ccc1F (stereo not shown) [drawing 15]	5.6	160
NC(CC(=O)N1CCN(C(=O)CC(O)C(N)Cc2ccccc2)CC1)Cc1ccccc1 (stereo not shown) [drawing 16]	> 50	900
CC(C(=O)NCC(C)(C)CNC(=O)C(O)C(N)Cc1ccccc1)C(N)Cc1cc(F)ccc1F (stereo not shown) [drawing 60]	0.87	450
NC(CC(=O)Nc1cccc(NC(=O)C(O)C(N)Cc2ccccc2)c1)Cc1cc(F)ccc1F (stereo not shown) [drawing 64]	0.35	500
CC(C)(CNC(=O)CC(N)Cc1cc(F)ccc1F)CNC(=O)C(O)C(N)Cc1ccccc1 (stereo not shown) [drawing 26]	0.06	100
NC(CC(=O)NCC1(CNC(=O)C(O)C(N)Cc2ccccc2)CCC1)Cc1ccccc1 (stereo not shown) [drawing 29]	0.191	1670
CCCC(=O)OC(C(=O)NCC(C)(C)CNC(=O)CC(N)Cc1cc(F)ccc1F)C(N)Cc1ccccc1 (stereo not shown) [drawing 54]	–	80
